In ChEMBL document CHEMBL4842305, “Bifunctional Doscadenamides Activate Quorum Sensing in Gram-Negative Bacteria and Synergize with TRAIL to Induce Apoptosis in Cancer Cells” (2021):
Active and inactive are the calls of the source. The rule behind the calls is not given here.

Legend:
Vibrio harveyi [1] = assay: Activation of quorum sensing in Vibrio harveyi from 10 to 200 uM after 7 hrs by luminescence method; details: filed as activator, dose 10-200 µM
[2] = Activation of quorum sensing system in Pseudomonas aeruginosa JP1 assessed as increase in pyocyanin production at 100 uM measured after 6 hrs relative to control; details: for fold change (FC): filed as activator
MDA-MB-231 [3] = assay: Synergistic anticancer activity against human MDA-MB-231 cells assessed as reduction in cell viability at 25 uM pretreated for 3 hrs followed by TRAIL stimulation measured after 24 hrs; type: functional; set-up: unit not given here; details: time 27 hrs
MDA-MB-231 [4] = assay: Synergistic anticancer activity against human MDA-MB-231 cells assessed as reduction in cell viability at 50 uM pretreated for 3 hrs followed by TRAIL stimulation measured after 24 hrs; type: functional; set-up: unit not given here; details: time 27 hrs
MDA-MB-231 [5] = assay: Induction of apoptosis in human MDA-MB-231 cells assessed as increase in cleaved PARP level at 50 uM by Western blot analysis; type: functional, cell-based
Pseudomonas aeruginosa [6] = assay: Binding affinity to Pseudomonas aeruginosa LasR W60F mutant expressed in Escherichia coli at 100 uM measured after 6 hrs by luminescence assay; details: filed as activator
[7] = molecular target: T1, Transcriptional activator protein LasR (Pseudomonas aeruginosa (strain ATCC 15692 / PAO1 / 1C / PRS 101 / LMG12228)) (UniProt P25084); assay: Binding affinity to wild type Pseudomonas aeruginosa LasR expressed in Escherichia coli at 100 uM measured after 6 hrs by luminescence assay; details: filed as activator
T1 sequence (whole entry): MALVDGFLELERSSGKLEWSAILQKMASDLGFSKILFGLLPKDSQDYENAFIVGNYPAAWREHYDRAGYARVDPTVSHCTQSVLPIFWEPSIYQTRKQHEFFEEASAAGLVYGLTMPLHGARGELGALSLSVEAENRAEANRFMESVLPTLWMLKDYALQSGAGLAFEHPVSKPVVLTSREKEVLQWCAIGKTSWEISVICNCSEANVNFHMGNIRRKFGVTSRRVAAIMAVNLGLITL

Pseudomonas aeruginosa [8] = assay: Binding affinity to Pseudomonas aeruginosa LasR D73N mutant expressed in Escherichia coli at 100 uM measured after 6 hrs by luminescence assay; details: filed as activator
Pseudomonas aeruginosa [9] = assay: Binding affinity to Pseudomonas aeruginosa LasR Y56F mutant expressed in Escherichia coli at 100 uM measured after 6 hrs by luminescence assay; details: filed as activator
Vibrio harveyi [10] = assay: Activation of quorum sensing in Vibrio harveyi upto 100 uM after 7 hrs by luminescence method; details: filed as activator, dose microM <=100, time 7.0 hrs

SMILES | fold change (FC) [2] | Activity (MDA-MB-231 [3]) | Activity (MDA-MB-231 [4]) | also measured
C#CCCCC[C@@H](C)C(=O)N1C(=O)C=C(OC)[C@@H]1CCCCNC(=O)OC(C)(C)C | 3 | 0.18 | 0.05 | Activity (Vibrio harveyi [1]): Active
C=CCCCC[C@@H](C)C(=O)N1C(=O)C=C(OC)[C@@H]1CCCCNC(=O)OC(C)(C)C | 4 | 0.06 | 0.02 | 
CCCCCC[C@@H](C)C(=O)N1C(=O)C=C(OC)[C@@H]1CCCCNC(=O)OC(C)(C)C | 5 | 0.26 | 0.14 | Activity (MDA-MB-231 [5]): Active
C#CCCCC[C@@H](C)C(=O)NCCCC[C@H]1C(OC)=CC(=O)N1C(=O)[C@H](C)CCCCC#C | 3 | 0.08 | 0.01 | Activity (Vibrio harveyi [1]): Active; Activity (Pseudomonas aeruginosa [6]): Active; Activity [7]: Active; Activity (Pseudomonas aeruginosa [8]): Active; Activity (Pseudomonas aeruginosa [9]): Active
CCCCCC[C@@H](C)C(=O)NCCCC[C@H]1C(OC)=CC(=O)N1C(=O)[C@H](C)CCCCCC |  | 0.31 | 0.23 | 
C#CCCCC[C@@H](C)C(=O)NCCCC[C@@H]1NC(=O)C=C1OC |  | 0.02 | 0 | Activity [2]: inactive
CCCCCCCCCC(=O)CC(=O)N[C@H]1CCOC1=O |  | 0.05 | -0.07 | 
C=CCCCC[C@@H](C)C(=O)NCCCC[C@H]1C(OC)=CC(=O)N1C(=O)[C@H](C)CCCCC=C |  | 0.31 | 0.08 | Activity (Vibrio harveyi [10]): Active
